From patent US9539232B1, “Calebin A for osteoporosis” (priority 2016, dated 2017)

Key:
Format in all cases: cell-based, mouse
[1] = tested on: RANK and c-Fms expression; assay: Immunoblot for M-CSF-induced osteoclast differentiation markers; details: 50 mM calebin A 8 h, 20 ng/mL M-CSF 24 h
Experimental: (§1) To determine protein expression levels, the cytoplasmic and whole cell extracts were prepared and were fractionated using 10% sodium dodecyl sulphate polyacrylamide gel electrophoresis (SDSPAGE). After electrophoresis, the proteins were transferred to nitrocellulose membranes, blotted with the relevant antibodies, and detected with enhanced chemiluminescence reagent (GE Healthcare, Piscataway, N.J.).
Further to examine the possible role of calebin A in the regulation of osteoclast differentiation in early stage, the RAW 264.7 cells were pre-treated with calebin A and induced by M-CSF for 24 h.

[2] = tested on: NFATc1, TRAP, cathepsin K and calcitonin R expression; assay: Western blot for RANKL-induced osteoclastogenesis-related marker expression
Experimental: as §1
NFATc1 plays a major role in the regulation of osteoclastogenesis. […] Basically, activation and nuclear translocation of NFATc1 and osteoclast differentiation are mediated by the expression of large number of marker genes, including TRAP, cathepsin K and calcitonin R, regulated by NFATc1. These genes are activated by the RANKL-mediated signalling pathway. Therefore, the effect of calebin A on the expression of RANKL-induced osteoclastogenesis related marker genes, were also examined.

ERK1/2 phosphorylation = assay: Western blot for phospho-ERK1/2; details: calebin A pretreatment 8 h, RANKL 10 nM
Experimental: as §1

[3] = tested on: RAW 264.7 cells incubated in the presence of MDA-MB-231 cells; assay: Osteoclastogenesis induced by co-culture with MDA-MB-231 breast cancer cells (TRAP staining); details: calebin A 5 mM, co-incubated 5 days
Experimental: (§2) To determine the effects of calebin A on RANKL-induced osteoclast differentiation, the RAW264.7 cells were cultured at a density of 5×10^3 cells per well in 24-well plates and allowed to adhere overnight. The medium was then replaced and the cells were treated with 5 nM RANKL for 5 days. After the incubation, the cells were subjected to TRAP staining using leukocyte acid phosphatase kit. For co-culture experiments with cancer cells, RAW 264.7 cells were seeded at a density of 5×10^3 cells per well and allowed to adhere overnight. U266 or MDA-MB-231 cells, at a density of 1×10^3 cells per well, were added to the RAW 264.7 cells the following day. The wells were treated with calebin A, and co-cultured for 5 days before being subjected to TRAP staining. For conditioned medium experiments, RAW 264.7 cells were seeded at a density of 5×10^3 cells per well and allowed to adhere overnight. The following day, the medium was replaced with ⅘ of RAW 264.7 medium (DMEM/F12) plus ⅕ of conditioned medium from MDA-MB-231 or U266 cells. For that procedure, the supernatant of cultured cancer cells that had been centrifuged was used. Finally, the RAW264.7 cells were cultured for 5 days and subjected to TRAP staining and an electrophoretic mobility shift assay (EMSA).

RAW 264.7 cells [4] = assay: Osteoclast differentiation assay, RANKL-induced (TRAP staining)
Experimental: as §2

[5] = tested on: RAW 264.7 cells incubated in the presence of U266 cells; assay: Osteoclastogenesis induced by co-culture with U266 multiple myeloma cells (TRAP staining); details: calebin A 5 mM, co-incubated 5 days
Experimental: as §2

NF-κB activation = assay: Electrophoretic mobility shift assay for NFκB
Experimental: To assess NFκB activation in the nuclear extracts, EMSA was carried out using the procedure described by Y. Li, S. Li, Y. Han, J. Liu, J. Zhang, F. Li, Y. Wang, X. Liu, L. Yao, Eur. J. Pharmacol. 591 (2008) 252-258. In brief, nuclear extracts from untreated and RANKL-treated RAW 264.7 cells were incubated with the 32P-end-labeled 45-mer double-stranded NFκB oligonucleotide ([…] protein with 16 fM DNA) from the HIV long terminal repeat, 5′-[…]-3′(boldface indicates NFκB binding sites), for 30 min at 37° C. The DNA-protein complex formed was separated from free oligonucleotides on 6.6% native polyacrylamide gels. The dried gels were visualized with a Storm 820 molecular imager (Amersham, Piscataway, N.J., USA), and radioactive bands were quantified using a densitometer and Image Quant software ([…]).

IκBα = assay: Western blot for IκBα degradation and phosphorylation
Experimental: as §1

RAW 264.7 cells [6] = assay: Cell proliferation assay (MTT); details: 1, 2 or 5 mM calebin A, days 1, 3 and 5
Experimental: The effects of calebin A on the proliferation of RAW 264.7 cells were determined by measuring mitochondrial dehydrogenase activity with 3-[4,5-dimethylthiazol-2-yl]-2,5-diphenyl tetrazolium bromide (MTT) as the substrate as described in B. Sung, S. Prasad, V. R. Yadav, S. C. Gupta, S. Reuter, N. Yamamoto, A. Murakami, B. B. Aggarwal, PloS One 8 (2013) e64118. In brief, 3000 RAW264.7 cells (in 0.1 ml media) per well were incubated with various concentrations of calebin A, in triplicate, in 96-well plates at 37° C. for 1, 3, or 5 days. At each interval, MTT solution was added to each well, and the plates were incubated for 2 h at 37° C. An extraction buffer (100 mM) comprised of 20% sodium dodecyl sulphate (SDS) and 50% dimethyl formamide was added, and the cells were incubated overnight at 37° C. to dissolve the formazan formed during the reaction. The absorbance of the coloured product was then measured at 570 nm using a 96-well multiscanner (MRX Revelation, Dynex Technologies, Chantilly, Va.).

[7] = tested on: p65 transfected RAW 264.7 cells; assay: RANKL-induced osteoclastogenesis after transfection of p65 plasmid; details: 5 mM calebin A, 5 nM RANKL, 5 days
Experimental: To determine the role of NF-κB/p65 expression on calebin A-induced inhibition osteoclastogenesis, RAW 264.7 cells (5×10^5 cells/well) were plated in 6-well plates and transiently transfected by the calcium phosphate method with pNF-κB ([…]) and control plasmid pCMVFLAG1 DNA for 24 h. The medium was then replaced, and the cells were treated with RANKL (5 nM) and or calebin A (5 mM) for 5 days. All cells were subjected to TRAP staining using the leukocyte acid phosphatase kit.

[8] = calebin A 5 mM, measured on day 5

SMILES: COc1cc(/C=C/C(=O)COC(=O)/C=C/c2ccc(O)c(OC)c2)ccc1O [Calebin A]
- M-CSF-induced expression of RANK [1]: downmodulate M-CSF-induced expression of RANK
- c-Fms expression [1]: no significant variation
- RANKL-induced NFATc1, TRAP, cathepsin K and calcitonin R expression ([2]; 50 mM calebin A 8 h, 10 nM RANKL 24 h): inhibits the RANKL-induced NFATc1, TRAP, cathepsin K and calcitonin R expression
- RANKL-induced NFATc1 expression ([2]; 50 mM calebin A 8 h pretreatment, 10 nM RANKL 24 h): abolished the RANKL-induced NFATc1 expression
- Expression of TRAP, cathepsin K and calcitonin R with calebin A alone ([2]; calebin A alone, no RANKL): no effect of calebin A alone
- RANKL-induced ERK1/2 phosphorylation (ERK1/2 phosphorylation): did not inhibit the RANKL-induced activation of ERK phosphorylation
- MDA-MB-231 cell-induced differentiation of RAW264.7 cells into osteoclasts [3]: inhibited this differentiation
- Number of TRAP-positive osteoclasts, time course (RAW 264.7 cells [4]; RANKL 5 nM plus calebin A for 3, 4 or 5 days): decreased the number of TRAP-positive osteoclasts in a dose-dependent manner
- Osteoclast formation, calebin A added 1-2 days after RANKL stimulation (RAW 264.7 cells [4]; [8]): substantially inhibited osteoclast formation
- Osteoclast formation, calebin A added at days 3 and 4 after RANKL exposure (RAW 264.7 cells [4]; [8]): no longer prevented osteoclast formation
- Inhibition of TRAP-positive osteoclast number at highest dose (RAW 264.7 cells [4]; dose of 5 mM, all time points (3, 4, 5 days)): strongest inhibition
- U266 cell-induced differentiation of RAW264.7 cells into osteoclasts [5]: A similar pattern was observed
- NF-κB activation without RANKL (EMSA) (NF-κB activation; 50 mM calebin A without RANKL for 8 h): No effect on the activation of NF-κB
- RANKL-induced NF-κB activation (EMSA), dose dependence (NF-κB activation; dose of 50 mM, 8 h pretreatment, RANKL 30 min): completely suppressed NF-κB activation
- RANKL-induced NF-κB activation (EMSA) (NF-κB activation; pretreated with various concentrations for 8 h or 50 mM for various times, then RANKL 10 nM 30 min): completely abrogated RANKL-induced NF-κB activation
- IκBα phosphorylation at serines 32 and 36 induced by RANKL and ALLN co-treatment (IκBα; 50 mM calebin A 8 h, ALLN 30 min, RANKL 10 nM 15 min): inhibited the induction of phosphorylation
- RANKL-induced IκBα degradation (cytoplasmic, western blot) (IκBα; 50 mM calebin A 8 h pretreatment, 10 nM RANKL): complete inhibition of IκBα degradation
- IκBα phosphorylation by calebin A alone (IκBα; calebin A alone, no RANKL): did not induce phosphorylation of IκBα
- RANKL-induced IκBα phosphorylation (IκBα; calebin A pretreatment (8 h), 10 nM RANKL): phosphorylation was completely inhibited
- Proliferation of RAW 264.7 cells (MTT) (RAW 264.7 cells [6]): did not significantly affect the proliferation of RAW 264.7 cells
- RANKL induced osteoclastogenesis in cells transfected with control plasmid [7]: almost completely inhibited
- RANKL induced osteoclastogenesis in p65 transfected RAW 264.7 cells [7]: minimally inhibited
